Measurements taken from patent US20050153932A1, “Controlled muscle relaxation” (priority 2003, published 2005).
Like-named read-outs stand apart in the source and are kept apart here.

Legend:
[1] = test system: neuromuscular block in a patient; conditions: cited from earlier work; for Time to >80% block: value (range)
[2] = test system: M. adductor pollicis contractions; assay: Vecuronium-induced block of M. adductor pollicis contractions (TOF stimulation) and effect of Org 25969 in anaesthetised Rhesus monkeys; assay type: in vivo, Rhesus monkey
Description: • T1: first twitch: amplitude of the first response to TOF stimulation, expressed as percentage of control T1 (%). • T4/T1 ratio: the ratio of T4 over T1 (within one TOF stimulus) expressed as decimals.
Female Rhesus monkeys were starved overnight and sedated with 10 mg·kg^−1 ketamine i.m., followed by i.v. injection of 25 mg·kg^−1 pentobarbitone sodium and subsequent infusion of 5-10 mg·kg^−1hr^−1. The animals were intubated and ventilated with a mixture of oxygen and nitrous oxide (2:3), using a ventilator. The expired CO2 level was measured using a capnograph. The tidal volume was adjusted to obtain a CO2 level of approximately 4.5%. Oxygen saturation was measured via a probe on the earlobe using a pulse oxymeter. Blood pressure was measured non-invasively with a cuff placed on the tail. The ECG was recorded and heart rate was measured. Rectal temperature was measured and body temperature was kept at 37-38° C. using a heating blanket. The right hand and right arm of the animal were fixed to a frame using surgical tape. The thumb was connected to a force transducer. A pre-load of 200-500 mN was applied. Two needle electrode were placed near the N. ulnaris and the nerve was stimulated with train-of-four pulses (pulse duration: 2 ms, train-frequency: 0.07 Hz). At the end of the experiment, the animals were allowed to recover from anesthesia. Appropriate recovery care was given to all animals. Two groups of monkeys were used to assess the reversal effects of Org 25969 against the neuromuscular blocking agents rocuronium (Esmeron®/Zemuron®) and vecuronium (Norcuron®). In the first group, animals initially received an intravenous bolus injection of a 1×ED90 dose of rocuronium bromide to induce neuromuscular block, followed by spontaneous recovery of the twitches. After complete recovery of the twitches, each group received a second and larger 5×ED90 dose of rocuronium followed by spontaneous recovery in one subgroup, whereas the other subgroup received an intravenous bolus dose of 1150 nmol·kg^−1 Org 25969 as soon as all twitches had disappeared. In the vecuronium groups of animals, the same protocol was used, but rocuronium was replaced by vecuronium. Rocuronium bromide and vecuronium bromide were dissolved in a citric acid/phosphate/mannitol buffer (pH 4.0). Org 25969 was dissolved in saline.

[3] = Org 25969 with vecuronium; cited from earlier work
[4] = Org 25969 with pancuronium; cited from earlier work
rocuronium-induced block = assay: Reversal of rocuronium-induced block in several animal models; assay type: in vivo; conditions: guinea pigs, cats and monkeys
[5] = Org 25969 with rocuronium; neutral pH and 25° C.; cited from earlier work
[6] = rocuronium 0.45 mg.kg−1, n = 50
[7] = rocuronium 0.6 mg.kg−1, n = 142
[8] = 5× ED90 vecuronium + 1150 nmol · kg^−1 Org 25969 i.v.
[9] = 5× ED90 vecuronium in the subgroup given 1150 nmol · kg^−1 Org 25969 once all twitches had disappeared

In the case of C=CC[N+]1([C@H]2C[C@H]3[C@@H]4CC[C@H]5C[C@H](O)[C@@H](N6CCOCC6)C[C@]5(C)[C@H]4CC[C@]3(C)[C@H]2OC(C)=O)CCCC1 [rocuronium, rocuronium bromide], the ED95 ([1]; neuromuscular block, clinical use) is listed as 0.30 mg/kg, the “Clinical duration (time until return to 25% of control T1)” value [1, 6] is listed as 22 min and the “Time to maximum block” value [1, 6] is listed as 3.0 min. For the same molecule, the “Time to >80% block” value [1, 6] was 1.3 (0.8-6.2) min, the “Clinical duration (time until return to 25% of control T1)” value [1, 7] was 31 min and the “Time to maximum block” value [1, 7] was 1.8 min. The “Time to >80% block” value [1, 7] was 1.0 (0.4-6.0) min, the “Clinical duration (time until return to 25% of control T1)” value ([1]; rocuronium 0.9 mg.kg−1, n = 20) was 58 min and the “Time to maximum block” value ([1]; rocuronium 0.9 mg.kg−1, n = 20) was 1.4 min. For the same molecule, the “Time to >80% block” value ([1]; rocuronium 0.9 mg.kg−1, n = 20) was 1.1 (0.3-3.8) min, the “Clinical duration (time until return to 25% of control T1)” value ([1]; rocuronium 1.2 mg.kg−1, n = 18) was 67 min and the “Time to maximum block” value ([1]; rocuronium 1.2 mg.kg−1, n = 18) was 1.0 min. For the same molecule, the “Time to >80% block” value ([1]; rocuronium 1.2 mg.kg−1, n = 18) was 0.7 (0.4-1.7) min.

In the case of O=C(O)CCSC[C@H]1O[C@@H]2O[C@H]3[C@H](O)[C@@H](O)[C@@H](O[C@H]4[C@H](O)[C@@H](O)[C@@H](O[C@H]5[C@H](O)[C@@H](O)[C@@H](O[C@H]6[C@H](O)[C@@H](O)[C@@H](O[C@H]7[C@H](O)[C@@H](O)[C@@H](O[C@H]8[C@H](O)[C@@H](O)[C@@H](O[C@H]9[C@H](O)[C@@H](O)[C@@H](O[C@H]1[C@H](O)[C@H]2O)O[C@@H]9CSCCC(=O)O)O[C@@H]8CSCCC(=O)O)O[C@@H]7CSCCC(=O)O)O[C@@H]6CSCCC(=O)O)O[C@@H]5CSCCC(=O)O)O[C@@H]4CSCCC(=O)O)O[C@@H]3CSCCC(=O)O [Org 25969, 6-per-deoxy-6-per-(2-carboxyethyl)thio-γ-cyclodextrin], the “effect on recovery from vecuronium-induced block (in words)” value ([2]; 1150 nmol·kg^−1 Org 25969 i.v. after 5×ED90 vecuronium) is reported as “initial improvement of the time to 25% and 50% recovery values, but the recovery slowed down”, the “0.50-0.90 TOF ratio interval” value [2, 8] is reported as 24.2 ± 3.9 min and the 25-75% recovery index [2, 8] is reported as 16.1 ± 3.7 min. The “time to 25% recovery of T1” value [2, 8] was 9.7 ± 1.9 min, the “time to 90% recovery of T1” value [2, 8] was 35.8 ± 7.1 min and the “time to TOF ratio 0.90” value [2, 8] was 48.6 ± 8.3 min. For the same molecule, the block [2, 9] was 100.0 ± 0.0%, the onset time [2, 9] was 1.0 ± 0.2 min and the “affinity (association constant)” value [3] was “about 9.10^6 M^−1”. For the same molecule, the “affinity (association constant)” value [4] was “about 2.6.10^6 M^−1”, the “reversal of rocuronium-induced block” value (rocuronium-induced block) was “rapidly reverse rocuronium-induced block” and the “association constant Ka” value [5] was “about 15.10^6 M^−1”.
